Where a name gives a salt, the structure may show the parent alone.
Experiment: Inhibition of rat brain Na(+)/K(+) ATPase

| Structure (SMILES) | IC50 |
| --- | --- |
| CC(C)=CCC/C(C)=C/CC/C(C)=C/CC/C(C)=C/CC/C(C)=C/CCC1(C)C=Cc2cc(OS(=O)(=O)O)ccc2O1 (configuration not stated) [SODIUM SARCOCHROMENOL SULFATE A] | 1600 nM |
| CC(C)=CCC/C(C)=C/CC/C(C)=C/CC/C(C)=C/CC/C(C)=C/CC/C(C)=C/CC/C(C)=C/Cc1cc(OS(=O)(=O)O)ccc1OS(=O)(=O)O [DISODIUM SARCOHYDROQUINONE SULFATE B] | 1400 nM |

From ChEMBL document CHEMBL1149739, “Sarcochromenol sulfates A-C and sarcohydroquinone sulfates A-C, new natural products from the sponge Sarcotragus spinulosus” (J Nat Prod, 1992)
